Columns and labels:
Type in all cases: biochemical
Conditions in all cases: procedures of Example 14 (TR-FRET)
[1] = target: JNK1 (Homo sapiens (Human), UniProt P45983); test: JNK1 TR-FRET kinase assay (Example 14)
Description: (§1) 14.3. Active JNK 1, 2 and 3 TR-FRET Assay
(§2) (1) Assay buffer #1 with 0.0025% Tween and 1 mM DTT was prepared using JNK buffer stock solution.
(§3) (2) Assay buffer #2 with 0.025% BSA was prepared using the assay buffer #1.
(§4) (3) Test compound solution preparation: 5× compound solution was prepared using assay buffer #1 with 5% DMSO. The compound solution (10 μl/well) was added to a 384-well plate (Corning, Cat No. 3654).
(§5) (4) aJNK1, 2 or 3 preparation: aJNK stock (100 μg/ml) at −80° C. was thawed on ice and an aJNK (1.6 ng/ml) solution was prepared using assay buffer #2. The aJNK solution (20 μl/well) was added to the plate and the plate was shaken. The enzyme was incubated with the compound at RT for 10 min. (5) ATP/substrate solution preparation: ATP and substrate stocks were thawed on ice. 2.5×ATP/substrate (e.g., 25 μM or 2.5 mM ATP/50 nM EPIW-1) was prepared using assay buffer #1. The ATP/substrate (20 μl/well) was added to the plate and the plate was shaken. The plate was incubated at RT for 15 min. Note: In an exemplary assay, the final ATP concentration was about 1 mM. (6) EDTA preparation: 30 mM EDTA was prepared using 0.5M EDTA stock and assay buffer #1. The EDTA (10 μl/well) was added to the plate to quench the enzyme reaction and the plate was shaken well. (7) Detection reagent preparation: Eu-63 and SA-XL stocks were thawed on ice. 4× Eu-63/SA-XL (2 nM Eu-63/9.4 nM SA-XL) was prepared using JNK detection buffer. The Eu-63/SA-XL solution (20 μl/well) was added to the plate and the plate was shaken. The plate was incubated at RT for 1 hr before reading the plate on LJL using ratiometric method named HTRF.
(§6) 14.4. Coupled JNK 1, 2 and 3 TR-FRET Assay
(§7) (1) Assay buffer with 0.0025% Tween, 0.01% BSA, and 1 mM DTT was prepared using JNK buffer stock solution.
(§8) (2) Test compound solution preparation: 5× compound solution, including EDTA background, was prepared using assay buffer with 5% DMSO. The compound solution (10 μl/well) was added to a 384-well plate (Corning, Cat No. 3654).
(§9) (3) uJNK1,2, or 3 activation reaction preparation: uJNK activation solution was prepared using assay buffer (1.6 ng/ml MKK4, 1.6 ng/ml MKK7, 16 ng/ml uJNK, and 20 uM ATP final). The uJNK activation solution (35 μl/well) was added to the plate, the plate was shaken, and the reaction mixture was incubated with compound at 30° C. for 60 min. (4) c-Jun substrate solution preparation: 50 nM EPIW-1, c-Jun peptide, was prepared using assay buffer (15 nM final). The EPIW-1 solution (15 μl/well) was added to the plate, the plate was shaken and incubated at 30° C. for 60 min. (5) EDTA preparation: 30 mM EDTA was prepared using 0.5M EDTA stock and assay buffer. The EDTA (10 μl/well) was added to the plate to quench the enzyme reaction and the plate was shaken well. (6) Detection reagent preparation: Eu-73 and SA-XL stocks were thawed on ice. 4× Eu-73/SA-XL (2 nM Eu-73/9.4 nM SA-XL) were prepared using JNK detection buffer. The Eu-73/SA-XL solution (20 μl/well) was added to the plate. The plate was shaken and incubated at RT for 1 hr before reading the plate on LJL using ratiometric method named HTRF.

[2] = target: JNK3 (Homo sapiens (Human), UniProt P53779); test: JNK3 TR-FRET kinase assay (Example 14)
Description: as §1, §2, §3, §4, §5, §6, §7, §8, §9

[3] = target: JNK2 (Homo sapiens (Human), UniProt P45984); test: JNK2 TR-FRET kinase assay (Example 14)
Description: as §1, §2, §3, §4, §5, §6, §7, §8, §9

Sequence of JNK1 (P45983 other isoform, or with tags, fused parts or gaps isoform P45983-2, species assumed): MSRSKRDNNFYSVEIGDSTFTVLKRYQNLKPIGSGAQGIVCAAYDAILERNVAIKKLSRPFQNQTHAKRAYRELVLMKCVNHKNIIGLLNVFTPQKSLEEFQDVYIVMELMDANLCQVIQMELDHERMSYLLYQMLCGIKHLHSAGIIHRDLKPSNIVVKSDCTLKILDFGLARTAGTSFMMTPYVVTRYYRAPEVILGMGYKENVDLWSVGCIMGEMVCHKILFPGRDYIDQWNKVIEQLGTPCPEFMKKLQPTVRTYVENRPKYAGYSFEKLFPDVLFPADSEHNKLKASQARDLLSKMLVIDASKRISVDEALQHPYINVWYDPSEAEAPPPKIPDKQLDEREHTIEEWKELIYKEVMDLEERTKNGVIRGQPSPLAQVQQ
Sequence of JNK2 (P45984 whole entry, species assumed): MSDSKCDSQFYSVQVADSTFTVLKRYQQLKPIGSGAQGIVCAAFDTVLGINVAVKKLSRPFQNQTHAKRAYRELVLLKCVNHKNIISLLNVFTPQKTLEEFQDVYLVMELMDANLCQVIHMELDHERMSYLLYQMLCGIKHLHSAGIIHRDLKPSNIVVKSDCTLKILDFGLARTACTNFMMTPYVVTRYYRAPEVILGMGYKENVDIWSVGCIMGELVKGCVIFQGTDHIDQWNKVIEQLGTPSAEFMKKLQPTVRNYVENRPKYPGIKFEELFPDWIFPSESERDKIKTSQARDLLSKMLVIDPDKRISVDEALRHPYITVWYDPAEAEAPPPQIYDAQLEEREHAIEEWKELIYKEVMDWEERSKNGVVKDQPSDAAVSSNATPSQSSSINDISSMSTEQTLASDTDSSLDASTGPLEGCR
Sequence of JNK3 (P53779 whole entry, species assumed): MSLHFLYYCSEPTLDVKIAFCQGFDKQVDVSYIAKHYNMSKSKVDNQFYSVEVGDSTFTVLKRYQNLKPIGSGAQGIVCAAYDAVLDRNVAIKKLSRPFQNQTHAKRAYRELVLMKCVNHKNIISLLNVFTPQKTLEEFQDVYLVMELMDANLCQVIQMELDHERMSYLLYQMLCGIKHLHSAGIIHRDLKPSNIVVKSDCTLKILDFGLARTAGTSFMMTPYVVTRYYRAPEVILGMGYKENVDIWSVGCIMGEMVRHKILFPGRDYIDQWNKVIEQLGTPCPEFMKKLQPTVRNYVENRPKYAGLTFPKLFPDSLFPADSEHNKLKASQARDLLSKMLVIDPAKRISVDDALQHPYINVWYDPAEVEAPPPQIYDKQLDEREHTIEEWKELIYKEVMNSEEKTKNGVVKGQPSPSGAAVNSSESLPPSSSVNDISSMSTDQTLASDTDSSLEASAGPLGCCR

Row | IC50 [1] [nM] | IC50 [2] [nM] | IC50 [3] [nM] | SMILES
1 | < 100 | < 100 | < 100 | O=C(Cn1c(=O)ccn2nccc12)Nc1scc(Cl)c1-c1ncn[nH]1 [N-(4-chloro-3-(1H-1,2,4-triazol-5-yl)thiophen-2-yl)-2-(5-oxopyrazolo[1,5-a]pyrimidin-4(5H)-yl)acetamide]
2 | < 100 | < 100 | < 100 | O=C(CN1C(=O)CCc2ncccc21)Nc1scc(Br)c1-c1ncco1 [N-(4-bromo-3-(oxazol-2-yl)thiophen-2-yl)-2-(2-oxo-3,4-dihydro-1,5-naphthyridin-1(2H)-yl)acetamide]
3 | < 100 | < 100 | 100 to 10000 | O=C(Cn1c(=O)ccc2cc(C(F)(F)F)ccc21)Nc1scc(Br)c1-n1nccn1 [N-(4-bromo-3-(2H-1,2,3-triazol-2-yl)thiophen-2-yl)-2-(2-oxo-6-(trifluoromethyl)quinolin-1(2H)-yl)acetamide]
4 | < 100 | 100 to 10000 | 100 to 10000 | O=C(CN1C(=O)C(F)(F)c2ccccc21)Nc1scc(Br)c1-c1nnc[nH]1 [N-(4-bromo-3-(4H-1,2,4-triazol-3-yl)thiophen-2-yl)-2-(3,3-difluoro-2-oxoindolin-1-yl)acetamide]
5 | < 100 | < 100 | < 100 | O=C(Cn1c(=O)ccc2cnccc21)Nc1scc(Br)c1-c1ncn[nH]1 [N-(4-bromo-3-(1H-1,2,4-triazol-5-yl)thiophen-2-yl)-2-(2-oxo-1,6-naphthyridin-1(2H)-yl)acetamide]
6 | < 100 | < 100 | < 100 | O=C(Cn1c(=O)ccn2nc(C(F)(F)F)cc12)Nc1scc(Br)c1-c1ncn[nH]1 [N-(4-bromo-3-(1H-1,2,4-triazol-5-yl)thiophen-2-yl)-2-(5-oxo-2-(trifluoromethyl)pyrazolo[1,5-a]pyrimidin-4(5H)-yl)acetamide]
7 | > 10000 | > 10000 | > 50000 | COc1ccc(CC(=O)Nc2ccsc2-n2cccn2)cc1 [N-(2-(1H-pyrazol-1-yl)thiophen-3-yl)-2-(4-methoxyphenyl)-acetamide]
8 | 100 to 10000 | 100 to 10000 | 100 to 10000 | N#Cc1csc(NC(=O)Cn2c(=O)ccc3cc(C(F)(F)F)ccc32)c1-n1ccnn1 [N-(4-cyano-3-(1H-1,2,3-triazol-1-yl)thiophen-2-yl)-2-(2-oxo-6-(trifluoromethyl)quinolin-1(2H)-yl)acetamide]
9 | 100 to 10000 | 100 to 10000 | 100 to 10000 | Cc1noc(-c2c(C)csc2NC(=O)Cc2cccc3ccccc23)n1 [N-(4-methyl-3-(3-methyl-1,2,4-oxadiazol-5-yl)thiophen-2-yl)-2-(naphthalen-1-yl)acetamide]
10 | 100 to 10000 | 100 to 10000 | 100 to 10000 | O=C(Cc1cc(C(F)(F)F)c2cccnc2c1)Nc1scc(Br)c1-c1nnc[nH]1 [N-(4-bromo-3-(4H-1,2,4-triazol-3-yl)thiophen-2-yl)-2-(5-(trifluoromethyl)quinolin-7-yl)acetamide]

The remaining lines, values behind:

Row | SMILES | IC50 [1] [nM] | IC50 [2] [nM] | IC50 [3] [nM]
11 | Cc1n[nH]c(-c2c(C)csc2NC(=O)Cc2cccc3ncccc23)n1 [N-(4-methyl-3-(3-methyl-1H-1,2,4-triazol-5-yl)thiophen-2-yl)-2-(quinolin-5-yl)acetamide] | < 100 | < 100 | 100 to 10000
12 | O=C(Cn1c(=O)ccc2nc(C(F)(F)F)ccc21)Nc1scc(Cl)c1-c1ncn[nH]1 [N-(4-chloro-3-(1H-1,2,4-triazol-5-yl)thiophen-2-yl)-2-(2-oxo-6-(trifluoromethyl)-1,5-naphthyridin-1(2H)-yl)acetamide] | < 100 | < 100 | < 100
13 | COc1ccc(CC(=O)Nc2sccc2-c2nnn(C)n2)cc1 [2-(4-methoxyphenyl)-N-(3-(2-methyl-2H-tetrazol-5-yl)thiophen-2-yl)acetamide] | 100 to 10000 | 100 to 10000 | > 10000
14 | O=C(CN1C(=O)CCc2cnccc21)Nc1scc(Br)c1-c1ncn[nH]1 [N-(4-bromo-3-(1H-1,2,4-triazol-5-yl)thiophen-2-yl)-2-(2-oxo-3,4-dihydro-1,6-naphthyridin-1(2H)-yl)acetamide] | < 100 | < 100 | < 100
15 | O=C(Cc1cccc2cnccc12)Nc1ccsc1-c1ncco1 [2-(isoquinolin-5-yl)-N-(2-(oxazol-2-yl)thiophen-3-yl)acetamide] | 100 to 10000 | 100 to 10000 | 100 to 10000
16 | O=C(Cn1c(=O)ccc2cc(F)c(F)cc21)Nc1scc(Br)c1-c1ncn[nH]1 [N-(4-bromo-3-(1H-1,2,4-triazol-5-yl)thiophen-2-yl)-2-(6,7-difluoro-2-oxoquinolin-1(2H)-yl)acetamide] | < 100 | < 100 | < 100
17 | Cc1n[nH]c(-c2c(C)csc2NC(=O)Cc2cccc3nccnc23)n1 [N-(4-methyl-3-(3-methyl-1H-1,2,4-triazol-5-yl)thiophen-2-yl)-2-(quinoxalin-5-yl)acetamide] | 100 to 10000 | 100 to 10000 | 100 to 10000
18 | COCn1nnnc1-c1ccsc1NC(=O)Cc1ccc(OC)cc1 [N-(3-(1-(methoxymethyl)-1H-tetrazol-5-yl)thiophen-2-yl)-2-(4-methoxyphenyl)acetamide] | 100 to 10000 | 100 to 10000 | > 50000
19 | COc1ccc(CC(=O)Nc2scc(C)c2-c2nc(C)n[nH]2)cc1 [2-(4-methoxyphenyl)-N-(4-methyl-3-(3-methyl-1H-1,2,4-triazol-5-yl)thiophen-2-yl)acetamide] | 100 to 10000 | 100 to 10000 | 100 to 10000
20 | COc1ccc(CC(=O)Nc2ccsc2-c2nc(-c3ccncc3)n[nH]2)cc1 [2-(4-methoxyphenyl)-N-(2-(3-(pyridin-4-yl)-1H-1,2,4-triazol-5-yl)thiophen-3-yl)acetamide] | 100 to 10000 | > 10000 | > 50000
21 | O=C(Cc1cccc2cnccc12)Nc1scc(Br)c1-c1ncn[nH]1 [N-(4-bromo-3-(1H-1,2,4-triazol-5-yl)thiophen-2-yl)-2-(isoquinolin-5-yl)acetamide] | < 100 | < 100 | < 100
22 | O=C(Cc1cccc2ccccc12)Nc1ccsc1-c1ncn[nH]1 [N-(2-(1H-1,2,4-triazol-5-yl)thiophen-3-yl)-2-(naphthalen-1-yl)acetamide] | 100 to 10000 | 100 to 10000 | 100 to 10000
23 | O=C(Cc1cccc2ncccc12)Nc1ccsc1-c1nnc[nH]1 [N-(2-(1H-1,2,4-triazol-5-yl)thiophen-3-yl)-2-(quinolin-5-yl)acetamide] | 100 to 10000 | 100 to 10000 | 100 to 10000
24 | Cc1n[nH]c(-c2c(C)csc2NC(=O)Cc2ccc(OCCCN3CCCCC3)cc2)n1 [N-(4-methyl-3-(3-methyl-1H-1,2,4-triazol-5-yl)thiophen-2-yl)-2-(4-(3-(piperidin-1-yl)propoxy)phenyl)acetamide] | 100 to 10000 | 100 to 10000 | 100 to 10000
25 | O=C(Cc1cc2ncccc2cc1F)Nc1scc(Br)c1-c1ncn[nH]1 [N-(4-bromo-3-(1H-1,2,4-triazol-5-yl)thiophen-2-yl)-2-(6-fluoroquinolin-7-yl)acetamide] | < 100 | 100 to 10000 | 100 to 10000
26 | O=C(CN1C(=O)CCc2ccccc21)Nc1scc(Cl)c1-c1ncn[nH]1 [N-(4-chloro-3-(1H-1,2,4-triazol-5-yl)thiophen-2-yl)-2-(2-oxo-3,4-dihydroquinolin-1(2H)-yl)acetamide] | < 100 | < 100 | < 100

From US9796706B2, “Inhibitors of Jun N-terminal kinase” (IMAGO PHARMACEUTICALS, INC., priority 2009, dated 2017)
